According to patent US7767681B2, “2-Carbamide-4-phenylthiazole derivatives, preparation thereof and therapeutic use thereof” (sanofi-aventis, priority 2004, dated 2010):
pIC50: −log10 of the molar value. Counter-ions that a name gives are not always drawn. Like-named read-outs stand apart in the source and are kept apart here.

Experiments:
[1] = biological target: T1, human CCR2b receptor (Homo sapiens, UniProt P41597); assay: Inhibitory activity on cells expressing the human CCR2b receptor; format: cell-based
T1 sequence (P41597 1-360 isoform P41597-2): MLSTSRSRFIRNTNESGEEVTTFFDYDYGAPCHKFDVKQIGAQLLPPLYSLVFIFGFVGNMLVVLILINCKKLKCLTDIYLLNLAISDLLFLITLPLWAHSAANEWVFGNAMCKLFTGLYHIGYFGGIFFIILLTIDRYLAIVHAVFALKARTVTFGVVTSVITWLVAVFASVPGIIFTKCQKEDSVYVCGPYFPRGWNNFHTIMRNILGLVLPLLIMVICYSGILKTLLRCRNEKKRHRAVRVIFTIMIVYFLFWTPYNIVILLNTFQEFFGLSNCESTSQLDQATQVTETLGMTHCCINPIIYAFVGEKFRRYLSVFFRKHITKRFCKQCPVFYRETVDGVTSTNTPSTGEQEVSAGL
Description: The inhibitory activity of the compounds according to the invention on cells expressing the human CCR2b receptor was measured.

[2] = test system: HIV-1 Bal virus; assay: Inhibitory activity on PBMCs infected with HIV-1 Bal (reverse transcriptase in supernatant); format: cell-based; conditions: compounds in culture medium for 5 days, read-out: IC50 viral replication (amount of reverse transcriptase in the supernatant)
Description: The inhibitory activity of the compounds according to the invention was also measured on PBMCs (peripheral blood mononuclear cells) infected with the HIV-1 Bal virus, according to a technique adapted from that described by V. Dolle et al., J. Med. Chem., 2000, 43, 3949, 3962. According to this technique, the PBMCs are infected with HIV-1 Bal and the compounds to be tested are then added to the culture medium for 5 days. At the end of this exposure, the amount of reverse transcriptase in the supernatant is measured, which correlates with the level of viral replication in the cells.

[3] = test system: human THP-1 monocyte cells; assay: Inhibition of chemotaxis on human THP-1 monocyte cells; format: cell-based; conditions: read-out: IC50 inhibition of chemotaxis (hMCP-1)
Description: The inhibition of chemotaxis was also measured on human THP-1 monocyte cells (sold by DSMZ—Germany), using a technique adapted from that described by A. Albini et al., Cancer Res., 1987, 47, 3239-3245.
The inhibition of chemotaxis by the compounds according to the invention is a sign of their antagonistic activity on chemokine receptors, and in particular the CCR2b receptor.

[4] = read-out: IC50 of the activity of the CCR2b receptor

| Compound | pIC50 [1, 4] | melting point [°C] | also measured |
| --- | --- | --- | --- |
| CCCc1ccc(OC)c(-c2csc(NC(=O)N3CCN(CCCN(CC)CC)CC3)n2)c1 [Compound No. 14] | 8.48 | – | – |
| COc1ccc(C2CCCC2)cc1-c1csc(NC(=O)N2CCN(CC3CCN(C)CC3)CC2)n1 [Compound No. 55] | 7.85 | 102 | – |
| CCCc1ccc(OC)c(-c2csc(NC(=O)N3CCN(CCCN(CC)CC)CC3)n2)c1 (as salt: HCl) [Compound No. 14] | – | 145 | – |
| Cc1cn([C@H]2C[C@H](N=[N+]=[N-])[C@@H](CO)O2)c(=O)[nH]c1=O [AZT] | – | – | pIC50 [2]: > 6.00 |
| hMCP-1: human monocyte chemotactic protein, CC chemokine, natural agonist of the CCR2b receptor [reference compound] | – | – | pIC50 ([1]; read-out: IC50 of the activity of the CCR2b receptor (natural agonist hMCP-1)): 9.24; pIC50 [3]: 8.22 |
